Results published in patent publication US20030176479A1, “Use of selective EP4 receptor agonists for the treatment of liver failure, loss of patency of the ductus arteriosus, glaucoma or ocular hypertension” (priority 2002, published 2003).

Columns and labels:
[1] = target: T1, rat EP4 receptor (Rattus norvegicus, UniProt P43114); assay: Rat EP4 receptor binding assay (3H-PGE2 displacement, 293S cell membranes); conditions: displacement of 3H-prostaglandin E2, 293S membranes, 1 hour at 25° C.
T1 construct: expressed in transfected cells
Source text: (§1) The compounds of Formula I or II, which are useful in the methods of the present invention, bind to the prostaglandin E2 type 4 receptor (EP4 receptor). The full-length coding sequence for the human EP1 receptor is made in accordance with the procedure in Funk et al., Journal of Biological Chemistry, 1993, 268, 26767-26772. The full-length rat EP2 receptor is made in accordance with the procedure in Nemoto et al., Prostaglandins and other Lipid Mediators, 1997, 54, 713-725. The full-length coding sequence for the human EP3 receptor is made in accordance with the procedure in Regan et al., British Journal of Pharmacology, 1994, 112, 377-385. The full-length coding sequence for the rat EP4 receptor is made in accordance with the procedure in Sando et al., Biochem. Biophys. Res. Comm. 1994, 200,1329-1333. These full-length receptors are used to prepare 293S cells expressing the human EP1, rat EP2, human EP3 or rat EP4 receptors.
(§2) Human EP1, Rat EP2, Human EP3, Rat EP4 Receptor Binding Assay
(§3) The full-length receptors described above are used to prepare 293S cells expressing the EP1, EP2, EP3, and EP4 receptors.
(§4) 293S cells expressing either the human EP1, rat EP2, human EP3 or rat EP4 prostaglandin E2 receptors are generated according to methods known to those skilled in the art. Typically, PCR (polymerase chain reaction) primers corresponding to the 5′ and 3′ ends of the published full length receptor are made according to the well known methods disclosed above and are used in an RT-PCR (reverse transcriptase-polymerase chain reaction) reaction using the total RNA from human kidney (for EP1), rat kidney (for EP2), human lung (for EP3), or rat kidney (EP4) as a source. PCR products are cloned by the TA overhang method into pCR2.1 (Invitrogen Corporation, Carlsbad, Calif.) and identity of the cloned receptor is confirmed by DNA sequencing. For expression of the rat EP2 receptor, the confirmed cDNA is subcloned into the mammalian expression vector PURpCl, a vector generated by subcloning the selectable marker for puromycin resistance into the mammalian expression vector pCl (Promega, Madison, Wis.)
(§5) 293S cells are transfected with either the cloned human EP1 or EP3 receptor in pcDNA3 by electroporation. Stable cell lines expressing either the human EP1 or EP3 receptor are established following selection of transfected cells with G418. 293S cells are transfected with the cloned rat EP2 receptor in PURpCi by lipid mediated transfection. Stable cell lines expressing the rat EP2 receptor are established following selection of transfected cells with puromycin. 293S cells are transfected with the cloned rat EP4 receptor in pcDNA3 by lipid mediated transfection. Stable cell lines expressing the rat EP4 receptor are established following selection of transfected cells with Geneticin® (Invitrogen, Carlsbad, Calif.).
(§6) Clonal cell lines expressing the maximal number of receptors are chosen following a whole cell ^3H-PGE2 binding assay using unlabeled PGE2 as a competitor.
(§7) Membrane Preparation: All operations are performed at 4° C. Transfected cells expressing either prostaglandin E2 type 1, type 2, type 3, or type 4 (EP1, EP2, EP3, or EP4, respectively) receptors are harvested and suspended to 2 million cells per ml in Buffer A [50 mM Tris-HCl (pH 7.4), 10 mM MgCI2, 1 mM EDTA, 1 mM Pefabloc peptide, (Boehringer Mannheim Corp., Indianapolis, Ind.), 10 uM Phosporamidon peptide, (Sigma, St. Louis, Mo.), 1 uM pepstatin A peptide, (Sigma, St. Louis, Mo.), 10 uM elastatinal peptide, (Sigma, St. Louis, Mo.), 100 uM antipain peptide, (Sigma, St. Louis, Mo.)]. The cells are lysed by sonification with a Branson Sonifier (Branson Ultrasonics Corporation, Danbury, Conn.) in 2 fifteen-second bursts. Unlysed cells and debris are removed by centrifugation at 100 ×g for 10 min. Membranes are then harvested by centrifugation at 45,000×g for 30 minutes. […]

[2] = target: T2, human EP1 receptor (Homo sapiens, UniProt P34995); assay: Human EP1 receptor binding assay (3H-PGE2 displacement, 293S cell membranes); conditions: displacement of 3H-prostaglandin E2, 293S membranes, 1 hour at 25° C.
T2 construct: expressed in transfected cells
T2 sequence (P34995 1-402): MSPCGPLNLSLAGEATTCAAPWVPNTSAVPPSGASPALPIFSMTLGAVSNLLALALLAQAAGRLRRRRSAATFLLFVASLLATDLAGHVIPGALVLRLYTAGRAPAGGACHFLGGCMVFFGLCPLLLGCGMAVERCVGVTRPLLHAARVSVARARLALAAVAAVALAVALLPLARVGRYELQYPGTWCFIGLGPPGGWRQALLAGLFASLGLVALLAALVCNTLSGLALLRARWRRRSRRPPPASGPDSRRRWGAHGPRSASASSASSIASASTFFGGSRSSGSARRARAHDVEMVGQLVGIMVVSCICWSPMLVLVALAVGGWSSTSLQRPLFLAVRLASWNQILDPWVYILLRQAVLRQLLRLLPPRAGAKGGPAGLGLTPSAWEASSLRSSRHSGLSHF
Source text: as §1, §2, §3, §4, §5, §6, §7

T1 sequence (P43114 whole entry): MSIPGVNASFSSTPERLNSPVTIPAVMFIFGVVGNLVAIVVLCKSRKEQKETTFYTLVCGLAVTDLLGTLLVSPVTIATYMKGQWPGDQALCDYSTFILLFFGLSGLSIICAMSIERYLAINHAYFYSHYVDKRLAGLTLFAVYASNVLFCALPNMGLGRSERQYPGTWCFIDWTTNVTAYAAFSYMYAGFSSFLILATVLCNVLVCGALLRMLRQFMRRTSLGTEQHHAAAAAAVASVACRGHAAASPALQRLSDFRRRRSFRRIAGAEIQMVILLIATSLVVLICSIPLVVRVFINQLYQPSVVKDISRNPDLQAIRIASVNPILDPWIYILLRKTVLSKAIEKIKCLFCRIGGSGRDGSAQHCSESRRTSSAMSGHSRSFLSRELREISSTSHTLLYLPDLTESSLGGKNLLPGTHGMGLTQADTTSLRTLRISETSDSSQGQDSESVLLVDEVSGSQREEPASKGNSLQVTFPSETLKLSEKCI

| IC50 [1] [µM] | IC50 [2] [µM] | SMILES |
| --- | --- | --- |
| 0.022 | > 3.2 | O=C(O)CCCCCCN1C(=O)CC[C@@H]1CC[C@@H](O)Cc1cccc(Cl)c1 [Example 1, 7-{2S-[4-(3-Chloro-phenyl)-3R-hydroxy-butyl]-5-oxo-pyrrolidin-1-yl}-heptanoic acid] |
| 0.021 | > 3.2 | O=C(O)CCCCCCN1C(=O)CC[C@@H]1CC[C@@H](O)Cc1cccc(C(F)(F)F)c1 [Example 2, 7-{2S-[3R-hydroxy-4-(3-trifluoromethyl-phenyl)-butyl]-5-oxo-pyrrolidin-1-yl}-heptanoic acid] |
| 0.038 | > 3.2 | O=C1CC[C@H](CCC(O)Cc2cccc(Cl)c2)N1CCCCCCc1nn[nH]n1 (stereo partly drawn) [Example 3, 5S-[4-(3-Chloro-phenyl)-3-hydroxy-butyl]-1-[6-(2H-tetrazol-5-yl)-hexyl]-pyrrolidin-2-one] |
| 0.033 | > 3.2 | O=C1CC[C@H](CC[C@@H](O)Cc2cccc(C(F)(F)F)c2)N1CCCCCCc1nn[nH]n1 [Example 4, 5S-[3R-Hydroxy-4-(3-trifluoromethyl-phenyl)-butyl]-1-[6-(2H-tetrazol-5-yl)-hexyl]-pyrrolidin-2-one] |
| 0.05 | > 3.2 | O=C1CCC(CCC(O)Cc2cccc(-c3ccccc3)c2)N1CCCCCCc1nn[nH]n1 (stereo not drawn) [Example 6, 5-(4-Biphenyl-3-yl-3-hydroxy-butyl)-1-[6-(2H-tetrazol-5-yl)-hexyl]-pyrrolidin-2-one] |
| 0.054 | > 3.2 | O=C(O)CCCCCCN1C(=O)CCC1CCC(O)Cc1ccccc1 (stereo not drawn) [Example 9, 7-(2-(3-hydroxy-4-phenyl-butyl)-5-oxo-pyrrolidin-1-yl)-heptanoic acid] |
